These results are taken from patent US20190308988A1, “OPIOID RECEPTOR ANTAGONIST PRODRUGS” (Nirsum Laboratories, Inc., priority 2017, published 2019).

Series [1] is described as follows: Liver S9 fraction stability, dog. The note with it: dog liver S9 1.0 mg/ml, 2 μM, 37° C. It counts as in vitro ADME. The protocol: (§1) Liver S9 fraction stability determination of the test compounds in dog, cynomolgus monkey and human is performed using HPLC-MS. Test compound (2 μM, 0.1% DMSO, 1% Methanol final concentration) was assessed for stability in a 50 μl phosphate buffer containing 1.0 mg/ml S9 protein from each of the three species and 5 mM D-saccharic acid-1, 4-lactone. Samples were incubated at 37° C. for 60 minutes and the % compound remaining was assessed.

A short description of series [2]: Liver S9 fraction stability, monkey. It counts as in vitro ADME, cynomolgus monkey. The note with it: monkey liver S9 1.0 mg/ml, 2 μM, 37° C. The method, then: as §1
A short description of series [3]: Liver S9 fraction stability, human. The note with it: human liver S9 1.0 mg/ml, 2 μM, 37° C. It counts as in vitro ADME. The method, then: as §1
Series [4] has as its target T1, DOR (Homo sapiens, UniProt P41143).
T1 construct: expressed in transfected cells
As to the kind of experiment: Opioid receptor binding assay, DOR ([3H]-DADLE). The method, then: (§2) Receptor binding assays were performed to assess the ability of compounds to inhibit binding to radiolabeled ligand.
(§3) The stable cell lines were established and prepared cell membrane obtained using these cell lines.
(§4) 1) Transfer 1 μl of specified concentration compound to assay plate according to the plate map for nonspecific binding. Transfer 1 μl of DMSO to assay plate according to plate map for total binding. 2) Follow the plate map. Dispense 99 μl of membrane stocks into the plate. 3) Add 100 μl of radio ligand. 4) Seal the plates. Incubate at RT for 1 hour. 5) Soak the Unifilter-96 GF/C filter plates with 50 μl of 0.3% PEI per well for at least 0.5 hour at room temperature. 6) When binding assays are completed, filter the reaction mixture through GF/C plates using Perkin Elmer Filtermate Harvester, and then wash each plate for 4 times with cold wash buffer. 7) Dry the filter plates for 1 hour at 50 degrees. 8) After drying, seal the bottom of the filter plate wells using Perkin Elmer Unifilter-96 backing seal tape. Add 50 μl of Perkin Elmer Microscint 20 cocktail. Seal top of filter plates with Perkin Elmer TopSeal-A sealing film. 9) Count ^3H trapped on filter using Perkin Elmer MicroBeta2 Reader second day. 10) Analyze the data with GraphPad Prism 5. Calculate the “Inhibition [% Control]” using the equation: % Inh=(1−Background subtracted Assay value/Background subtracted HC value)*100.

Series [5] deals with T2, KOR (Homo sapiens, UniProt P41145).
T2 construct: expressed in transfected cells
T2 sequence (P41145 whole entry): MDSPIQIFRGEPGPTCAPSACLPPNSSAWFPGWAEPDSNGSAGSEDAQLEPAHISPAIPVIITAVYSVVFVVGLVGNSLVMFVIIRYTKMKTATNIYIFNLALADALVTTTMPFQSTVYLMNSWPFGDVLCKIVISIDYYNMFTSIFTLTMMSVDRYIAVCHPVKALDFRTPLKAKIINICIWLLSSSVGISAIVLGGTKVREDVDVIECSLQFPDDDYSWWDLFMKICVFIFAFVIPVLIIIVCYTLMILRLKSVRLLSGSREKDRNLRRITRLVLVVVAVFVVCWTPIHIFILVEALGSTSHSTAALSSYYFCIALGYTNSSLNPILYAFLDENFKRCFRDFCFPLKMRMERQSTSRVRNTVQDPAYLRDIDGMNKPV
Nature of the series: Opioid receptor binding assay, KOR ([3H]Diprenorphine). The protocol: as §2, §3, §4

Series [6] deals with T3, MOR (Homo sapiens, UniProt P35372).
T3 construct: expressed in transfected cells
T3 sequence (P35372 whole entry): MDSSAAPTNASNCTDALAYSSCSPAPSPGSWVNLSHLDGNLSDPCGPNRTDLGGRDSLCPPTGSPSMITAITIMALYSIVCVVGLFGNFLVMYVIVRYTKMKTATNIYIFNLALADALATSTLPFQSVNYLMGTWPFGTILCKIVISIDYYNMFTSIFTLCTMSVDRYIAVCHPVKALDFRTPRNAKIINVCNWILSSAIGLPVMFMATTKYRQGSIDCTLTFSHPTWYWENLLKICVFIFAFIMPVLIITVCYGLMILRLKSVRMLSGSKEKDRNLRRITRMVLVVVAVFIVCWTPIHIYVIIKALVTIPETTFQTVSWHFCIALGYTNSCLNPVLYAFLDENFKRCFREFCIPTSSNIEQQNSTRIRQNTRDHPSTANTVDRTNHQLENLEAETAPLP
Nature of the series: Opioid receptor binding assay, MOR ([3H]DAMGO). The method, then: as §2, §3, §4

Series [7] in a line: Solubility determination in oil (Table 10). The note with it: thermodynamic from solid; for solubility at 24 h: 25 °C, Heating Temp. 60 °C, Obs. Temp. 25 °C; for solubility / solubility thermodynamic: 40 °C, Heating Temp. 40 °C, Obs. Temp. 40 °C; for solubility thermodynamic: water, Equilibrium solubility: Water. The method, then:
A known amount of test substance (˜40 mg) was weighed into the vial, 100 μL of oil was added and heated to 60° C. and then system was slurried to reach equilibrium. […] Extra oil was added into the vial once compound precipitated out and then the system was re-equilibrated at 1000 rpm at room temperature (25° C.). Final concentration was determined by HPLC method as described below in Table 6a and 6b.

The nature of series [8]: Rat pharmacokinetic studies, intramuscular administration. It counts as in vivo, male Sprague Dawley Rats. The conditions noted are these: male, Sprague Dawley, rat, plasma, im; for AUC(0-inf): read-out: AUC0-inf (ng · h/mL) prodrug; for half-life: read-out: Half-life t1/2 (hour) prodrug (converted). The protocol:
The purpose of this study is to determine the pharmacokinetics of test compounds in plasma, following intramuscular administration to male Sprague Dawley Rats (n=3, unless otherwise specified).
The dose formulation of 400 mg base equivalents/ml in sesame oil+1% benzyl alcohol (unless otherwise specified) was administered by intramuscular injection. The dose volume was determined by the animals' body weight determined on the morning of dosing day.
Each collected blood sample was centrifuged for 4 minutes at 4° C. and 10000 rpm for plasma collection. Plasma was collected and transferred into a pre-labeled PP tube in dry ice at each time point and precipitated immediately using ACN at a ratio of 1:4 (plasma:ACN). Centrifuged again (10 minutes, 12000 rpm) and obtain the supernatant.
LC-MS/MS methods for the quantitative determination of test compound in biological matrix were developed. […] The sample analysis was performed concurrently with a set of calibration standards and two sets of QC samples using the LC-MS/MS method.
Plasma concentration versus time data was analyzed by non-compartmental approaches using the Phoenix WinNonlin 6.3 software program. Cmax, Tmax, T1/2, AUC(0-t), AUC(0-inf), MRT(0-t), MRT(0-inf) and graphs of plasma concentration versus time profile were prepared.

Series [9] is described as follows: Dog pharmacokinetic studies, deep intramuscular administration. It counts as in vivo, Beagle dogs. The conditions noted are these: Beagle, dog, plasma, im; for AUC(0-inf): read-out: AUC0-inf (ng · h/mL) prodrug; for half-life: read-out: Half-life t1/2 (hour) prodrug (converted). The method, boiled down:
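Beagle dogs (n=3) dosed by deep intramuscular injection into quadriceps or biceps femoris, formulation 400 mg base equivalents/mL in sesame oil + 1% benzyl alcohol, under propofol sedation. Plasma quantified by LC-MS/MS; non-compartmental analysis for Cmax, Tmax, T1/2, AUC and MRT.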

[10] abbreviates: oil or lipid, Approximate Solubility in Excipient: Cottonseed oil.
Setting [11] is: oil or lipid, Approximate Solubility in Excipient: Sesame oil.
The mark [12] stands for this setting: 80 mg/kg, Sesame oil + 1% Benzyl Alcohol.
Where [13] appears, read: 123 mg/kg, Sesame oil + 1% Benzyl Alcohol.
Setting [14] is: 165 mg/kg, Sesame oil + 1% Benzyl Alcohol.
Where [15] appears, read: 30 mg/kg, IM 30 mg/kg, Sesame oil + 1% Benzyl Alcohol.
The mark [16] stands for this setting: 48 mg/kg, IM 48 mg/kg (deep), Sesame oil + 1% Benzyl Alcohol.
Where [17] appears, read: 48 mg/kg, IM 48 mg/kg (shallow), Sesame oil + 1% Benzyl Alcohol.
[18] abbreviates: 96 mg/kg, IM 96 mg/kg, Sesame oil + 1% Benzyl Alcohol.
The mark [19] stands for this setting: 80 mg/kg, Cottonseed + 1% Benzyl Alcohol.
Where [20] appears, read: 123 mg/kg, Cottonseed oil + 1% Benzyl Alcohol.
[21] abbreviates: 165 mg/kg, Cottonseed oil + 1% Benzyl Alcohol.
The mark [22] stands for this setting: 48 mg/kg, IM 48 mg/kg (deep), Cottonseed + 1% Benzyl Alcohol.
Setting [23] is: 48 mg/kg, IM 48 mg/kg (shallow), Cottonseed + 1% Benzyl Alcohol.

The IC50 is the concentration that inhibits the measured activity by half. By solubility is commonly meant the concentration that dissolves in the medium under given conditions. By thermodynamic solubility is commonly meant the concentration in solution at equilibrium with solid.

Molecules are shown by their SMILES. In brackets after ≈: the same amount, converted by molar mass.

T1 sequence (P41143 whole entry): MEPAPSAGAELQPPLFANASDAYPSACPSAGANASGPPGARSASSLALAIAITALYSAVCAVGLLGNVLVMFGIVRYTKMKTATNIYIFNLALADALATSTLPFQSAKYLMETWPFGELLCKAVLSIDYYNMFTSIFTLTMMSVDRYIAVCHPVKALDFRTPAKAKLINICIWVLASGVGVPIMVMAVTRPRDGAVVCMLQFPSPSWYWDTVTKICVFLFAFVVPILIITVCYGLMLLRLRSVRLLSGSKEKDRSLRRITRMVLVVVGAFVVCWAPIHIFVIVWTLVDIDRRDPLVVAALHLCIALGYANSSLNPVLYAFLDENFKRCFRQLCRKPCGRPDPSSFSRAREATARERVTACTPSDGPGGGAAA

Take `C=C1CC[C@@]2(O)C3Cc4ccc(OC(=O)OCCCCCCCCCCCC)c5c4[C@@]2(CCN3CC2CC2)[C@H]1O5` [Compound 6, (4aS,7aS,12bS)-3-(cyclopropylmethyl)-4a-hydroxy-7-methylene-2,3,4,4a,5,6,7,7a-octahydro-1H-4,12-methanobenzofuro[3,2-e]isoquinolin-9-yl dodecyl carbonate]: the “% remaining at 60 minutes, Dog” value in series [1] is 17.1%. Moreover, the “% remaining at 60 minutes, Monkey” value in series [2] is 0%. For the same compound, the “% remaining at 60 minutes, Human” value in series [3] was determined as 5.3%. Further, the IC50 in series [4] came out at 500 nM; in [5], 51.1 nM; in [6] it was 14.9 nM. In addition, the values for the solubility at 24 h in [7] (setting [10]) and in series [7] (setting [11]) were above 397 mg/mL and above 386 mg/mL, respectively. Besides, the solubility in series [7] (setting [10]) is above 421 mg/mL; in series [7] (setting [11]), above 403 mg/mL; in series [7] (organic solvent or mixture, Approximate Solubility in Excipient: Ethanol) it was 120 to 170 mg/mL (≈ 217 to 308 mM). The same compound registered a solubility (thermodynamic) in [7] of 0.002 mg/mL (≈ 0.00362 mM). For the same compound, the AUC(0-inf) came to 78.9 ng·h/mL in [8] (setting [12]); 620 ng·h/mL in series [8] (setting [13]); 637 ng·h/mL in series [8] (setting [14]); 398 ng·h/mL in series [9] (setting [15]); 2190 ng·h/mL in [9] (setting [16]); 1020 ng·h/mL in series [9] (setting [17]). Moreover, the AUC(0-inf) in series [9] (setting [18]) amounted to 1290 ng·h/mL. The half-life is 340 h in series [8] (setting [12]); 213 h in [8] (setting [13]); 204 h in series [8] (setting [14]); 95 h in series [9] (setting [15]); 54 h in series [9] (setting [16]); 135 h in series [9] (setting [17]). Further, in series [9] (setting [18]), the half-life was 88 h.
`C=C1CC[C@@]2(O)C3Cc4ccc(OCOC(=O)OCCCCCCCCCCCC)c5c4[C@@]2(CCN3CC2CC2)[C@H]1O5` [Compound 24, (((4aS,7aS,12bS)-3-(cyclopropylmethyl)-4a-hydroxy-7-methylene-2,3,4,4a,5,6,7,7a-octahydro-1H-4,12-methanobenzofuro[3,2-e]isoquinolin-9-yl)oxy)methyl dodecyl carbonate]: the “% remaining at 60 minutes, Dog” value in [1] is on record as 3.6%. Also, the “% remaining at 60 minutes, Monkey” value in series [2] is given as 3%. The “% remaining at 60 minutes, Human” value in series [3] turned out to be 3.5%. Also, the IC50 in series [4] stood at 2120 nM; in [5] it was 37.5 nM; in series [6] it was 22.4 nM. For the same compound, the solubility at 24 h was above 403 mg/mL in series [7] (setting [10]) and 338 to 368 mg/mL (≈ 581 to 633 mM) in series [7] (setting [11]). In series [7], this compound displayed a solubility (thermodynamic) below 0.001 mg/mL. Further, the AUC(0-inf) in series [8] (setting [19]) came out at 147 ng·h/mL; in [8] (setting [20]) it was 547 ng·h/mL; in [8] (setting [21]), 453 ng·h/mL; in series [9] (setting [22]) it was 613 ng·h/mL; in [9] (setting [23]), 526 ng·h/mL. Also, the half-life in series [8] (setting [19]) is 398 h; in series [8] (setting [20]), 717 h; in series [8] (setting [21]), 851 h; in series [9] (setting [22]), 59.6 h; in [9] (setting [23]), 102 h.
